According to PMC10897476, “Pyridylpiperazine efflux pump inhibitor boosts in vivo antibiotic efficacy against K. pneumoniae” (EMBO Molecular Medicine, 2023):
Where two headings read alike, the source gives them in different places. Marks after values point to notes of the source that are not given here.

How the values were obtained:
[1] = system: K. pneumoniae RamR^mut (K124*stop); assay: MIC of antibiotics with and without EPI (REMA), RamR mutant; format: cell-based, Klebsiella pneumoniae; conditions: for Minimum Inhibitory Concentration: K. pneumoniae RamR^mut; for MIC: Klebsiella pneumoniae, read-out: Minimum Inhibitory Concentration
Method: (§1) MIC experiments were carried out according to the CLSI guidelines (CLSI [2023]). Overnight cultures were diluted to an OD600 = 0.001 in CAMHB followed by addition of efflux pump inhibitors (EPIs) at a final concentration of 100 µM. […] Plates were incubated at 37 °C for up to 20 h. Bacterial viability was evaluated using the resazurin microtitre assay (REMA) and measured by fluorescence using a Tecan Spaert multimode plate reader (Ex: 530 nm Em: 590 nm). MICs were defined as the concentration that prevented 90% of resazurin turnover compared to the non-treated bacteria.
(§2) Mutations in acrB or ramR identified in the BDM88855.HCl (1’) resistant mutant (a.k.a., KPJC11) were introduced individually into K. pneumoniae ATCC 43816 chromosome by allelic exchange (Cianfanelli et al, [2020]). Briefly, 1-kb PCR products centred around each point mutation were generated by amplifying acrB with primers RH1251 ([…][…]) and RH1252 ([…][…]) or ramR with primers RH1249 ([…][…]) and RH1250 ([…][…]) from KPJC11 genomic DNA. PCR fragments were cloned into pFOK (Cianfanelli et al, [2020]) using NEB-building kit ([New England Biolabs]) to generate pEP1533 and pEP1534. Correct plasmids were confirmed by sequencing and introduced into K. pneumoniae ATCC43816 WT via conjugation with the MFDpir+ E. coli donor strain. Exconjugants were selected on kanamycin (50 mg/L) plates at 37 °C and plasmid chromosomal integration was checked by PCR. […] The next day, cultures were diluted and plated onto LB agar. Isolated colonies were then patched onto LB plates with or without kanamycin (50 mg/L) and Km^S candidates were evaluated for correct allelic exchange via acrB or ramR sequencing and then WGS to confirm no additional mutations were introduced.

[2] = system: K. pneumoniae ATCC 43816 (WT); assay: MIC of antibiotics with and without EPI (REMA), WT strain; format: cell-based, Klebsiella pneumoniae; conditions: for MIC: Klebsiella pneumoniae
Method: Overnight cultures were diluted to an OD600 = 0.001 in CAMHB followed by addition of efflux pump inhibitors (EPIs) at a final concentration of 100 µM. […] Plates were incubated at 37 °C for up to 20 h. […] MICs were defined as the concentration that prevented 90% of resazurin turnover compared to the non-treated bacteria.

K. pneumoniae AcrB^V448E = assay: MIC of antibiotics with and without EPI (REMA), AcrB V448E mutant; format: cell-based, Klebsiella pneumoniae; conditions: for Minimum Inhibitory Concentration: K. pneumoniae AcrB^V448E; for MIC: Klebsiella pneumoniae, read-out: Minimum Inhibitory Concentration
Method: as §1, §2

[3] = system: K. pneumoniae AcrB^V448E RamR^mut; assay: MIC of antibiotics with and without EPI (REMA), double mutant; format: cell-based, Klebsiella pneumoniae; conditions: for Minimum Inhibitory Concentration: K. pneumoniae AcrB^V448E RamR^mut; for MIC: Klebsiella pneumoniae, read-out: Minimum Inhibitory Concentration
Method: as §1

[4] = Microsomal stability in mouse liver microsomes; format: in vitro ADME; conditions: for microsomal CLint at 1 μM / half-life at 1 μM: female; for microsomal CLint at 1 μM: CD-1, pH 7.4, read-out: Microsomal stability CLint (intrinsic clearance); for half-life at 1 μM: CD-1, pH 7.4, read-out: Microsomal stability t1/2
Method: To determine compound microsomal stability, liver microsomes from female mice (CD-1, Corning) were used. All incubations were performed in duplicate in a shaking water bath at 37 °C. The incubation mixtures contained 1 μM compound with 1% MeOH used as a vehicle, mouse liver microsomes (0.3 mg of microsomal protein per mL), 5 mM MgCl2, 1 mM NADP, 5 mM glucose 6-phosphate, 0.4 U/mL glucose 6-phosphate dehydrogenase, and 50 mM potassium phosphate buffer (pH 7.4) in a final volume of 0.5 mL. Propranolol, known as a high hepatic clearance drug in rodents, was used as a quality-control compound. Controls (t0 and tfinal) were performed in the same conditions but without NADP. The reaction was initiated by the addition of the compound at 1 µM final. Aliquots were removed at 5, 10, 20, 30, and 40 min and the reaction was stopped by adding four volumes of ice-cold MeCN or MeOH containing an internal standard. The samples were centrifuged for 10 min at 12,000 rpm at 4 °C and the supernatants were transferred in matrix tubes for LC-MS/MS analysis. Each compound was quantified by converting the corresponding analyte/internal standard peak area ratios to percentage drug remaining, using the initial ratio values in control incubations as 100%.
Intrinsic clearance (CLint) is expressed as μL/min/mg proteins.

E. coli BW25113 = assay: PyrPip boosting of pyridomycin activity in E. coli (resazurin reduction); format: cell-based, Escherichia coli; conditions: for EC90: read-out: PyrPip antibiotic boosting activity EC90
Excerpt: With the aim of developing a PyrPip for in vivo efficacy studies in mice, it was important to optimise the metabolic stability of these efflux pump inhibitors to guarantee sufficient exposure in mice needed for antibiotic boosting. […] To identify metabolically stabilised PyrPips while maintaining AcrB inhibition, it was therefore decided to explore modifications to the quinoline core as well as the introduction of substituents at position 6 of the quinoline ring.

[5] = K. pneumoniae WT, + 100 µM PAβN
[6] = E. coli BW25113 in the presence of 8 μg/mL pyridomycin, resazurin reduction, mean ± SEM

## CCN1CCN(C(=O)N[C@@H](C(=O)N[C@@H]2C(=O)N3[C@@H]2SC(C)(C)[C@@H]3C(=O)O)c2ccccc2)C(=O)C1=O [Piperacillin]
[1]; + 100 µM 1'
  Minimum Inhibitory Concentration: 16 mg/L
[1]; + 100 µM 5
  Minimum Inhibitory Concentration: 6.7^# mg/L
[1]; + 100 µM PAβN
  Minimum Inhibitory Concentration: 21 mg/L
[1]
  MIC: 27 µg/mL
[2]; K. pneumoniae WT, + 100 µM 1'
  Minimum Inhibitory Concentration: 5.3 mg/L
[2]; K. pneumoniae WT, + 100 µM 5
  Minimum Inhibitory Concentration: 4.0^# mg/L
[2]; [5]
  Minimum Inhibitory Concentration: 8.0 mg/L
[2]; ATCC43816, K. pneumoniae WT, No EPI, read-out: Minimum Inhibitory Concentration
  MIC: 8 µg/mL
K. pneumoniae AcrB^V448E; + 100 µM 1'
  Minimum Inhibitory Concentration: 5.3^# mg/L
K. pneumoniae AcrB^V448E; + 100 µM 5
  Minimum Inhibitory Concentration: 5.3^# mg/L
K. pneumoniae AcrB^V448E; + 100 µM PAβN
  Minimum Inhibitory Concentration: 13 mg/L
K. pneumoniae AcrB^V448E
  MIC: 16 µg/mL
[3]; + 100 µM 1'
  Minimum Inhibitory Concentration: 37 mg/L
[3]; + 100 µM 5
  Minimum Inhibitory Concentration: 21 mg/L
[3]; + 100 µM PAβN
  Minimum Inhibitory Concentration: 43 mg/L
[3]
  MIC: 21 µg/mL

## CN(C)[C@@H]1C(O)=C(C(N)=O)C(=O)[C@@]2(O)C(O)=C3C(=O)c4c(O)cccc4[C@@](C)(O)[C@H]3C[C@@H]12 [Tetracycline]
[1]; + 100 µM 1'
  Minimum Inhibitory Concentration: 1.1^# mg/L
[1]; + 100 µM 5
  Minimum Inhibitory Concentration: 0.7^# mg/L
[1]; + 100 µM PAβN
  Minimum Inhibitory Concentration: 4.3^# mg/L
[1]
  MIC: 8.5 µg/mL
[2]; K. pneumoniae WT, + 100 µM 1'
  Minimum Inhibitory Concentration: 0.4^# mg/L
[2]; K. pneumoniae WT, + 100 µM 5
  Minimum Inhibitory Concentration: 0.4^# mg/L
[2]; [5]
  Minimum Inhibitory Concentration: 1.3 mg/L
[2]; ATCC43816, read-out: Minimum Inhibitory Concentration
  MIC: 0.8 µg/mL
K. pneumoniae AcrB^V448E; + 100 µM 1'
  Minimum Inhibitory Concentration: 0.8^# mg/L
K. pneumoniae AcrB^V448E; + 100 µM 5
  Minimum Inhibitory Concentration: 0.7^# mg/L
K. pneumoniae AcrB^V448E; + 100 µM PAβN
  Minimum Inhibitory Concentration: 2.7 mg/L
K. pneumoniae AcrB^V448E
  MIC: 1.9 µg/mL
[3]; + 100 µM 1'
  Minimum Inhibitory Concentration: 11 mg/L
[3]; + 100 µM 5
  Minimum Inhibitory Concentration: 8.5 mg/L
[3]; + 100 µM PAβN
  Minimum Inhibitory Concentration: 4.3^# mg/L
[3]
  MIC: 11 µg/mL

## Clc1cc2ccccc2nc1N1CCNCC1 [compound 1]
[4]
  Microsomal stability CLint (intrinsic clearance): 59 μL/min/mg proteins
  Microsomal stability t1/2: 24 min
[1]; K. pneumoniae-RamR^mut, Table 2
  EPI mediated antibiotic boosting, in words: maintained
E. coli BW25113; [6]
  PyrPip antibiotic boosting activity EC90: 3.6 ± 0.5 µM
K. pneumoniae AcrB^V448E; K. pneumoniae-AcrB^V448E, Table 2
  susceptibility of the strain to antibiotic boosting by the EPI, in words: resistant

## Clc1nc2ccccc2cc1N1CCNCC1 [compound 2]
E. coli BW25113; [6]
  EC90: 15.6 µM
E. coli BW25113; relative to BDM88855.HCl (1’)
  decrease in potency (EC90) on changing the position of the nitrogen atom: 4 fold

## Clc1nc2ccccc2nc1N1CCNCC1 [compound 3]
[4]
  microsomal CLint at 1 μM: 111 µL/min/mg
  half-life at 1 μM: 15 min
E. coli BW25113; [6]
  EC90: 3.9 ± 1.6 µM

## Clc1cc2cc[nH]c2nc1N1CCNCC1 [compound 4]
E. coli BW25113; [6]
  EC90: > 250 µM

## Clc1cc2cc(N3CCOCC3)ccc2nc1N1CCNCC1 [compound 6]
[4]
  microsomal CLint at 1 μM: 103 µL/min/mg
  half-life at 1 μM: 11 min
E. coli BW25113; [6]
  EC90: 104 ± 28 µM

## Clc1cc2cc(N3CCCCC3)ccc2nc1N1CCNCC1 [compound 7]
[4]
  microsomal CLint at 1 μM: 223 µL/min/mg
  half-life at 1 μM: 6 min
E. coli BW25113; [6]
  EC90: 13 ± 4 µM

## O=C1CNCCN1c1ccc2nc(N3CCNCC3)c(Cl)cc2c1 [compound 8]
E. coli BW25113; [6]
  EC90: 31 µM
E. coli BW25113; piperazinone in place of the piperazine of compound 5
  decrease in potency (EC90): 8 fold

## NCCNc1ccc2nc(N3CCNCC3)c(Cl)cc2c1 [compound 9]
[4]
  microsomal CLint at 1 μM: 47 µL/min/mg
  half-life at 1 μM: 40 min
E. coli BW25113; [6]
  EC90: 3.9 µM

## NCC(=O)Nc1ccc2nc(N3CCNCC3)c(Cl)cc2c1 [compound 10]
[4]
  microsomal CLint at 1 μM: 2 µL/min/mg
  half-life at 1 μM: > 40 min
E. coli BW25113; [6]
  EC90: 3.9 µM

## NCCCNc1ccc2nc(N3CCNCC3)c(Cl)cc2c1 [compound 11]
E. coli BW25113; [6]
  EC90: 7.8 µM
E. coli BW25113; relative to compound 9
  decrease in potency (EC90): 2 fold

## N[C@@H]1CCN(c2ccc3nc(N4CCNCC4)c(Cl)cc3c2)C1 [compound 12]
[4]
  microsomal CLint at 1 μM: 303 µL/min/mg
  half-life at 1 μM: 2.6 min
E. coli BW25113; [6]
  EC90: 1.3 ± 0.4 µM
E. coli BW25113; compared to analogue 5
  improvement of potency (EC90): 3 fold

## N[C@H]1CCN(c2ccc3nc(N4CCNCC4)c(Cl)cc3c2)C1 [compound 13]
E. coli BW25113; [6]
  EC90: 9.1 ± 4.3 µM
